Assay [1] addresses T1, mitochondrial isoenzyme of the GOT (Homo sapiens, UniProt P00505).
T1 sequence (P00505 30-430): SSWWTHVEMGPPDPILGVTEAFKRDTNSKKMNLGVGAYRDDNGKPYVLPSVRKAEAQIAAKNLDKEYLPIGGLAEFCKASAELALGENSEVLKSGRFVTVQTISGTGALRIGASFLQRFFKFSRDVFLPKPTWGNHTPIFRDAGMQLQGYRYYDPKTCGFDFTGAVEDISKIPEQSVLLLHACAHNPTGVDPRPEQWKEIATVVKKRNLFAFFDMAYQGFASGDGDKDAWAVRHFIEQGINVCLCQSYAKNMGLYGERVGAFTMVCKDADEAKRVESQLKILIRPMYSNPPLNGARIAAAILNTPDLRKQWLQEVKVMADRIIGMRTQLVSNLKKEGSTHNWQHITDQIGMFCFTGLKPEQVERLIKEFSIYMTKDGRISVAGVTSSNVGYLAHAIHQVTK
As to the kind of experiment: Effect on activity of GOT isoenzymes in vitro (isoenzymes dissociated by isoelectric focusing), mitochondrial isoenzyme. Conditions: FIG. 1b. The class given is biochemical. The text has this:
(§1) In FIG. 1b is shown the effect of […] (AOA) and hydroxylamine (HA) on the activity of the cytosolic and mitochondrial isoenzyme of the GOT in vitro. The isoenzymes of the GOT were dissociated by an isoelectric focusing. […] The inhibition of the GOT leads to an inhibition of the malate-aspartate shuttle. As a consequence, NAD cannot be recycled, and the glycolysis is inhibited at the stage of the GAPDH.

Assay [2] addresses cytosolic isoenzyme of the GOT (Homo sapiens, UniProt P17174). As to the kind of experiment: Effect on activity of GOT isoenzymes in vitro (isoenzymes dissociated by isoelectric focusing), cytosolic isoenzyme. The class given is biochemical. The conditions noted are these: FIG. 1b.
Source text: as §1

Chain of cytosolic isoenzyme of the GOT (P17174 whole entry): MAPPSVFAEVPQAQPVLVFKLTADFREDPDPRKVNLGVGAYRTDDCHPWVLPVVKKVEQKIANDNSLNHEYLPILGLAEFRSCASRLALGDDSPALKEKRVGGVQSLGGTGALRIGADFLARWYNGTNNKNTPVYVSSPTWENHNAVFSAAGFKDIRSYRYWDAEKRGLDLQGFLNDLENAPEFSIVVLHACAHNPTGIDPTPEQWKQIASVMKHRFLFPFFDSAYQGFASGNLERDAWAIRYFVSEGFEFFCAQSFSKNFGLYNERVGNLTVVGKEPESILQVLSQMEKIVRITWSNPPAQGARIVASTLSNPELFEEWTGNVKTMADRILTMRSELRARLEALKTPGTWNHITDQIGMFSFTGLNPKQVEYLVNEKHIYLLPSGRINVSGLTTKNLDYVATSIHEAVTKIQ

Consider `NO` [hydroxylamine], for which, in assay [1], the “effect on the activity of the mitochondrial isoenzyme of the GOT” value was “inhibits both isoenzymes”. Also, in assay [2], the “effect on the activity of the cytosolic isoenzyme of the GOT” value is “inhibits both isoenzymes”. With `NOCC(=O)O` [aminooxyacetate, (aminooxy)acetic acid], the “effect on the activity of the cytosolic isoenzyme of the GOT” value in assay [2] is listed as “mainly inhibits the cytosolic isoenzyme”.

Source of the values: patent US7223784B2, “Compounds for the modulation of the glycolysis enzyme and/or transaminase complex” (ScheBo® Biotech AG, priority 2002, dated 2007).
